Experimental findings from US20240124389A1, “COMPOUND OR SALT THEREOF, LIPID PARTICLES, AND PHARMACEUTICAL COMPOSITION” (FUJIFILM Corporation, priority 2021, published 2024) are described below.

A short description of data set [1]: Particle size of EPO mRNA-encapsulating lipid particles. The note with it: aminolipid 50 / DOPE 10 / cholesterol 38.5 / DMG-PEG2000 1.5 mol %, lipid/nucleic acid 64 wt/wt. The format is physicochemical. In short, it runs like this: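 Lipid particles made from ethanol lipid phase (20 mmol/L total lipid, with DSPC, DOPE or DOPC, cholesterol, DMG-PEG2000) and EPO mRNA in pH 4 citrate buffer (lipid:mRNA about 16:1 to 64:1 w/w), mixed 3:1 aqueous:oil, then dialyzed against 10% sucrose. Size measured after 10-fold PBS dilution by light-scattering analyzer.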

Data set [2] has as its system FLuc mRNA. As to the kind of experiment: mRNA encapsulation rate of FLuc mRNA-encapsulating lipid particles. In kind it is physicochemical. On the procedure: The compounds described in Table 2, the neutral lipid, cholesterol (product name: Cholesterol HP; NTPPON FINE CHEMICAL CO., LTD.), and 1,2-dimyristoyl-rac-glycero-3-(methylpolyoxyethylene 2000) (hereinafter, called DMG-PEG2000) were dissolved in ethanol at a molar ratio in Table 2 such that the total lipid concentration became 20 mmol/L, thereby obtaining an oil phase.
As the neutral lipid, 1,2-distearoyl-sn-glycero-3-phosphocholine (product name: COATSOME® MC-8080; NOF corporation) was used in a case of Comparative Example 1, and L-α-dioleoylphosphatidylethanolamine (product name: COATSOME® MC-8181; NOF corporation) was used in a case other than Comparative Example 1.
FLuc mRNA (product name: CleanCap FLuc mRNA (5 moU); TriLink) was diluted with 50 mmol/L citrate buffer having a pH 4 such that the weight ratio of total lipid concentration to mRNA concentration is about 19:1 to 64:1, obtaining a water phase. Then, the water phase and the oil phase were mixed together using NanoAssemblr (Precision NanoSystems) such that the volume ratio of water phase:oil phase was 3:1, and the mixed solution was 1.5-fold diluted with phosphate buffered saline (PBS), thereby obtaining a dispersion liquid of mRNA lipid particles. The dispersion liquid was dialyzed with a 10% aqueous sucrose solution using a dialysis cassette (Slide-A-Lyzer G2, MWCO: 10 kD, Thermo Fisher Scientific) to remove ethanol, thereby obtaining FLuc mRNA-encapsulating lipid particles.
15 to 30 μL of a 3 mol/L aqueous sodium acetate solution and 4.5 to 9 μL of glycogen were added to 30 to 60 μL of the lipid particles retaining mRNA, and 0.75 to 1.5 mL of ethanol was added thereto, so that only the nucleic acids were precipitated while the lipid was dissolved. Then, the supernatant was removed by centrifugation. The precipitates were air-dried for 15 minutes or longer, then water was added thereto to redissolve the precipitates, and the concentration thereof was measured using Nanodrop NF1000 (Thermo Fisher Scientific), thereby quantifying the total mRNA concentration.
The mRNA concentration was quantified using a Quant-iT RiboGreen RNA Assay Kit (Thermo Fisher Scientific) according to the protocol. First, a 20×TE buffer included in the above-described kit was diluted with water, thereby obtaining a 1×TE buffer. TE represents Tris/EDTA (ethylenediaminetetraacetic acid). In order to quantify only mRNA in the outer water phase, the dispersion liquid of lipid particles retaining mRNA was 10,000-fold diluted with the 1×TE buffer. 100 μL of the 10,000-fold diluted dispersion liquid of lipid particles was put into a 96-well plate, then 100 μL of a RiboGreen reagent (reagent included in the Quanti-iT Ribogreen RNA Assay Kit described above) 2,000-fold diluted with the 1×TE buffer was added to a sample, and fluorescence (excitation wavelength: 485 nm, fluorescence wavelength: 535 nm) was measured using a plate reader Infinite F200 (TECAN), thereby quantifying the mRNA concentration in the outer water phase.
By using the quantification results of the total mRNA concentration and the mRNA concentration in the outer water phase that were obtained through the above steps, the mRNA encapsulation rate of the mRNA lipid particles was calculated according to the following Equation.
mRNA encapsulation rate (%)=(total mRNA concentration-mRNA concentration in outer water phase)/total mRNA concentration×100

Where [3] appears, read: aminolipid 45 / DOPE 10 / cholesterol 43.5 / DMG-PEG2000 1.5 mol %, lipid/nucleic acid 32 wt/wt.

In data set [1], `CCCCCCC(CCCC)COC(=O)CCCC(CCCCCC)OC(=O)OCCN(CCOC(=O)OC(CCCCCC)CCCC(=O)OCC(CCCC)CCCCCC)CCN(CC)CC` (stereo not shown) [Example 8, Bis(2-butyloctyl) 11-(2-(diethylamino)ethyl)-5,17-dihexyl-7,15-dioxo-6,8,14,16-tetraoxa-11-azahenicosanedioate] showed a Particle size of 81.3 nm.

For the molecule `CCCCCC(CCCCC)COC(=O)CCCC(CCC)OC(=O)OCCN(CCOC(=O)OC(CCC)CCCC(=O)OCC(CCCCC)CCCCC)CCN(CC)CC` (stereo not shown) [Example 21, Bis(2-pentylheptyl) 11-(2-(diethylamino)ethyl)-7,15-dioxo-5,17-dipropyl-6,8,14,16-tetraoxa-11-azahenicosanedioate], in data set [2] (setting [3]), the “Nucleic acid encapsulation rate” value was 98.4%. Moreover, in data set [1], the Particle size is on record as 109.4 nm.

`CCCCCCCOC(=O)CCCC(CCCC(=O)OCCCCCCC)OC(=O)OCCN(CCOC(=O)OC(CCCC(=O)OCCCCCCC)CCCC(=O)OCCCCCCC)CCN(CC)CC` [Example 29, diheptyl 11-(2-(diethylamino)ethyl)-5,17-bis(4-(heptyloxy)-4-oxobutyl)-7,15-dioxo-6,8,14,16-tetraoxa-11-azahenicosanedioate]: the “Nucleic acid encapsulation rate” value in data set [2] (aminolipid 40 / DOPE 10 / cholesterol 48.5 / DMG-PEG2000 1.5 mol %, lipid/nucleic acid 64 wt/wt) is 100.0%; in data set [2] (setting [3]), 95.0%; in data set [2] (aminolipid 50 / DOPE 10 / cholesterol 38.5 / DMG-PEG2000 1.5 mol %, lipid/nucleic acid 64 wt/wt), 100.0%. In data set [1], this molecule showed a Particle size of 108.7 nm.

Turning to `CCCCCCCOC(=O)CCCC(CCCC(=O)OCCCCCCC)OC(=O)OCCN(CCOC(=O)OC(CCCC(=O)OCCCCCC)CCCC(=O)OCCCCCC)CCN(CC)CC` [Example 37, 1-Heptyl 21-hexyl 11-(2-(diethylamino)ethyl)-5-(4-(heptyloxy)-4-oxobutyl)-17-(4-(hexyloxy)-4-oxobutyl)-7,15-d ioxo-6,8,14,16-tetraoxa-11-azahenicosanedioate], the Particle size in data set [1] stood at 136.1 nm.

Consider `CCCCCCC(CCCC(=O)OCC(CCCCC)CCCCC)OC(=O)OCCN(CCCN(CC)CC)CCOC(=O)OC(CCCCCC)CCCC(=O)OCC(CCCCC)CCCCC` (stereo not shown) [Example 13, Bis(2-pentylheptyl) 11-(3-(diethylamino)propyl)-5,17-dihexyl-7,15-dioxo-6,8,14,16-tetraoxa-11-azahenicosanedio ate], for which, in data set [2] (setting [3]), the “Nucleic acid encapsulation rate” value was 99.1%. The molecule further came in with a Particle size in data set [1] of 79.5 nm.
